PubChem BioAssay (NCI)
Several values for one entry are separate records, joined by “and”; a condition that tells them apart may be missing. Identical values can stand only once.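 Following 48 hours of exposure in 96-well plates, responses at five concentrations were used to interpolate endpoints linearly. GI50 = concentration required for 50% inhibition of growth. The concentration for full growth arrest is given as TGI.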

Key:
Assay in all cases: NCI tumour cell line growth inhibition, 48 h
TK-10 renal = tested on: TK-10 renal
HS 578T breast = tested on: HS 578T breast
NCI-H226 lung = tested on: NCI-H226 lung
MDA-MB-231 breast = tested on: MDA-MB-231 breast
HL-60(TB) leukemia = tested on: HL-60(TB) leukemia
KM12 colon = tested on: KM12 colon
MDA-N = tested on: MDA-N
IGROV1 ovarian = tested on: IGROV1 ovarian
BT-549 breast = tested on: BT-549 breast
RPMI-8226 leukemia = tested on: RPMI-8226 leukemia

Row | Compound | TGI (TK-10 renal) [µM] | TGI (HS 578T breast) [µM] | TGI (NCI-H226 lung) | TGI (MDA-MB-231 breast) [µM] | TGI (HL-60(TB) leukemia) [µM] | TGI (KM12 colon) [µM] | TGI (MDA-N) [µM] | TGI (IGROV1 ovarian) [µM] | TGI (BT-549 breast) [µM] | TGI (RPMI-8226 leukemia) | GI50 (NCI-H226 lung) [µM] | GI50 (KM12 colon) [µM] | GI50 (TK-10 renal) | GI50 (RPMI-8226 leukemia) | GI50 (HL-60(TB) leukemia)
1 | C=CCCCN(C(=O)c1ccccc1)c1ccc(C(=O)OC)o1 | > 100 | > 100 | > 100 µM | > 100 | > 100 | > 100 | > 100 | > 100 | – | – | – | – | – | – | –
2 | COc1ccc(Cn2c(=O)c(OS(=O)(=O)C(F)(F)F)c(C)c3cc4ccccc4cc32)cc1 | > 100 | > 100 | > 100 µM | > 100 | > 100 | > 100 | > 100 | > 100 | > 100 | – | – | – | – | – | –
3 | CC(=O)OC1C2CCC3CC2C2(SCCS2)C31 (configuration not stated) | > 100 | > 100 | > 100 µM | > 100 | > 100 | > 100 | > 100 | > 100 | – | > 100 µM | – | – | – | – | –
4 | Cc1ccc(N=Nc2c(O)ccc3ccccc23)c(C)c1 | > 100 | > 100 | > 100 µM | > 100 | – | > 100 | > 100 | > 100 | > 100 | > 100 µM | – | – | – | – | –
5 | COc1ccc(C2C3=C(COC3=O)Oc3cc4c(cc32)OCO4)cc1OC (configuration not stated) | > 100 | 6.14 | > 100 µM | > 100 | 0.804 | > 71.7 | 0.639 | > 100 | – | > 23.5 µM | – | – | – | – | –
6 | CC(C)(C)N=C1C(=O)C2(C)CCC1C2(C)C (configuration not stated) | > 100 | – | > 100 µM | > 100 | – | > 100 | – | > 100 | > 100 | > 100 µM | – | – | – | – | –
7 | CC(=O)N1CCOC12N=NC(C)(C)O2 (configuration not stated) | > 100 | > 100 | – | > 100 | – | > 100 | > 100 | > 100 | > 100 | > 100 µM | – | – | – | – | –
8 | CCCCn1c(-c2ccccc2)cs/c1=N\NC(=O)Cn1c(C)nc2ccccc21 | > 100 | – | > 100 µM | – | 56.2 | > 100 | – | > 100 | – | > 100 µM | – | – | – | – | –
9 | CC1(C)Cc2ccccc2C(C)(Cl)C(=O)N1 (configuration not stated) | > 10 | – | > 10 µM | > 10 | > 10 | > 10 | > 10 | > 10 | > 10 | > 10 µM | – | – | – | – | –
10 | C/C(=N\Nc1nc2cc(F)ccc2s1)c1ccccn1 | – | – | – | > 45.1 | – | > 23.4 | – | – | 5.84 | > 100 µM | – | – | – | – | –
11 | Cc1cc(NS(=O)(=O)c2ccc(Nc3c4ccccc4nc4c(C(=O)NC(CO)(CO)CO)cccc34)cc2)no1 | 61.7 | 52.7 | – | > 100 | > 100 | 71.4 | > 100 | > 100 | 98.9 | 63.9 µM | – | – | – | – | –
12 | CSCSCC(CO)NC(=O)/C=C\c1c(C)[nH]c(=O)[nH]c1=O (configuration not stated) | – | – | 309 µM | – | 46.6 | 156 | – | 320 | – | 239 µM | 49.8 | 10.8 | – | – | –
13 | CCOC(=O)/C=C(/C(=O)OCC)n1cc(C)c(=O)n(Cc2cn(CCCCOC(C)=O)nn2)c1=O | 16.7 | 59 | 37.1 µM | 65.4 | – | 29.5 | > 100 | 29.6 | – | 25.6 µM | – | – | – | – | –
14 | COc1ccc(NCn2nc(CCCCCCCCc3nn(CNc4ccc(OC)cc4)c(=S)o3)oc2=S)cc1 | > 100 | – | > 100 µM | > 100 | – | > 100 | > 100 | – | > 100 | > 100 µM | – | – | – | – | –
15 | COc1cc(/C=C2\N=C(c3ccccc3)N(c3cc4cc(Sc5ccccc5)ccc4[nH]3)C2=O)ccc1O | – | – | > 50 µM | – | 4.19 | > 50 | – | > 50 | > 50 | – | – | – | – | – | –
16 | CN1CCC(O)(OC(=O)C(c2ccccc2)C2(O)CCCC2)CC1 (configuration not stated) | > 100 | > 100 | > 100 µM | > 100 | > 100 | > 100 | > 100 | > 100 | – | > 100 µM | – | – | – | – | –
17 | O=C(O)C12C=CC(C1)c1ccccc12 (configuration not stated) | > 100 | – | > 100 µM | – | > 100 | – | – | > 100 | – | > 100 µM | – | – | – | – | –
18 | CC(C)(C1=NC(C(C)(C)C)CO1)C1=N[C@@H](C(C)(C)C)CO1 (some centres not stated) | > 100 | – | > 100 µM | – | > 100 | > 100 | – | > 100 | – | > 100 µM | – | – | – | – | –
19 | CCOC(=O)C1=C(N2CCCC2)C(=O)C(C(=O)OCC)C1 (configuration not stated) | > 100 | – | > 100 µM | > 100 | – | > 100 | > 100 | > 100 | > 100 | > 100 µM | – | – | – | – | –
20 | Cc1c2cc[n+](C)cc2c(C)c2c1[nH]c1ccc(OCC(F)(F)F)cc12 | > 100 | – | 1.69 µM and 3.75 µM | – | > 70.4 | > 44.8 | – | > 100 | – | 43 µM and > 88 µM | 0.581 | – | 13.5 µM and > 100 µM | 4.27 µM and 23.7 µM | 5.13 µM and 16.4 µM
21 | c1ccc(C2N=C(c3ccccn3)C(c3ccccn3)=NC2c2ccccc2)cc1 (configuration not stated) | > 100 | – | > 100 µM | – | > 100 | > 100 | – | > 100 | – | > 100 µM | – | – | – | – | –
22 | C=C1C(=O)OC2C[C@@]3(C)CCCC(=C)C3CC12 (some centres not stated) | 23.5 | – | 26 µM | – | – | 5.94 | – | 33.3 | – | – | – | – | – | – | –
23 | O=C1OC2(CCCCC2)C(Oc2ccc(Cl)cc2)=C1F | > 100 | > 100 | – | > 100 | 62.8 | > 100 | > 100 | > 100 | – | > 100 µM | – | – | – | – | –
24 | C#CC(O)/C=C/C(O)CCCC(O)CC#CC(O)C#CCCCCC(O)/C=C/CCCC(=O)CCCCCCCCCCCCCCCC(O)C(O)C#CC(=O)O (configuration not stated) | > 25 | > 25 | > 25 µM | > 25 | > 25 | > 25 | > 25 | > 25 | – | > 25 µM | – | – | – | – | –
25 | COC(=O)c1c(CC(=O)OC(C)C)cc2n(c1=O)Cc1c-2nc2ccccc2c1OC | > 100 | – | > 100 µM | – | > 100 | – | – | > 100 | – | > 100 µM | – | – | – | – | –
26 | Cc1ccc(N2Cc3c(ccc4ccccc34)OP2(=S)N2CCCC2)cc1 (configuration not stated) | – | – | > 100 µM | – | > 100 | > 100 | – | > 100 | – | > 100 µM | – | – | – | – | –
27 | Cc1c(C(=O)O)sc2nc[nH]c(=O)c12 | > 100 | 79.5 | > 100 µM | > 100 | > 100 | > 100 | – | > 100 | – | > 100 µM | – | – | – | – | –
